The results in this text go back to ChEMBL document CHEMBL6074635, “Replacement of the essential nitro group by electrophilic warheads towards nitro-free antimycobacterial benzothiazinones” (Eur J Med Chem, 2024).

≈ marks a conversion by molar mass, not a printed value.

One data set relates to Mycolicibacterium vaccae. Briefly: Antimycobacterial activity against Mycobacterium vaccae JMRC:STI:10670 assessed as inhibition of bacterial growth incubated for 42 hrs by broth microdilution method. The class given is functional. Background: Dilution methods test growth across graded concentrations, often in twofold steps.
For data set [1], the system named is Mycobacterium tuberculosis. Put plainly: Antimycobacterial activity against Mycobacterium tuberculosis Erdman ATCC 35801 assessed as inhibition of bacterial growth incubated for 7 days by resazurin dye based two-fold dilution assay. The class given is functional. The note with it: Erdman ATCC 35801, 168 h, time 7 day. On the technique in general: Resazurin is reduced to fluorescent resorufin, in cell work by metabolically active cells.

The nature of data set [2]: Stability of compound in PBS at pH 7.4 assessed as half-life in presence of GSH incubated for 90 mins by UPLC-HRMS analysis. Particulars: PBS with GSH. Type of data set: physicochemical.
Data set [3] in a line: Drug metabolism in BALB/cAnNCrl mouse assessed as HMC metabolite formation at 250 mg/kg,po measured after 24 hrs by UHPLC-HRMS analysis. The note with it: in vivo. The class given is ADME, organism-based.
Data set [4] has as its system Mycolicibacterium smegmatis. Put plainly: Antimycobacterial activity against Mycobacterium smegmatis JMRC:STH:00056 assessed as inhibition of bacterial growth incubated for 42 hrs by broth microdilution method. The class given is functional.
Data set [5] deals with Mycobacterium tuberculosis. Briefly: Antimycobacterial activity against Mycobacterium tuberculosis H37Rv assessed as inhibition of bacterial growth incubated for 7 days by resazurin dye based two-fold dilution assay. The class given is functional. Particulars: 168 h, time 7 day.
A short description of data set [6]: Cytotoxicity against human HeLa cells incubated for 72 hrs by cell-titer blue reagent assay. Type of data set: toxicity, cell-based.
The target of data set [7] is T1, Decaprenylphosphoryl-beta-D-ribose oxidase (Mycobacterium tuberculosis (strain ATCC 25618 / H37Rv), UniProt P9WJF1).
T1 sequence (P9WJF1 whole entry): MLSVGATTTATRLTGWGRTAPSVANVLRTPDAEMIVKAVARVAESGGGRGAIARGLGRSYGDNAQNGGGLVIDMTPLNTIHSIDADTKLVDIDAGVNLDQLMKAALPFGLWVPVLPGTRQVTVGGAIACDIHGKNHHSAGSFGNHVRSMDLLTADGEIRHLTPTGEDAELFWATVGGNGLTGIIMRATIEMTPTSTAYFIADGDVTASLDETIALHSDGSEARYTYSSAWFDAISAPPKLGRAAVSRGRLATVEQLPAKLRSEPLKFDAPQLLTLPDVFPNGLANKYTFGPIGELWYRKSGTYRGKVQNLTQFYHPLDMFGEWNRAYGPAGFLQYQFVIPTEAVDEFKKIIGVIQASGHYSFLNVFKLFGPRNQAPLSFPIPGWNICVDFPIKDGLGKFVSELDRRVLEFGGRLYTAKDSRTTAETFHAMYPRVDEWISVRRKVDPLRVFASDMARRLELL
Briefly: Reversible inhibition of recombinant Mycobacterium tuberculosis DprE1 extracted from Escherichia coli BL21(DE3) using FPR/GGPR as substrate incubated for 60 mins by resazurin dye based fluorescence plate reader analysis.

Data set [8] in a line: Stability of compound in PBS at pH 7.4 in presence of GSH incubated for 90 mins by UPLC-HRMS analysis. The class given is physicochemical. Particulars: buffer, pH 7.4, 1.5 h.
The target in data set [9] is T1, Decaprenylphosphoryl-beta-D-ribose oxidase. Briefly: Covalent inhibition of recombinant Mycobacterium tuberculosis DprE1 extracted from Escherichia coli BL21(DE3) using FPR/GGPR as substrate incubated for 60 mins by resazurin dye based fluorescence plate reader analysis.
Data set [10] has the same target. Briefly: Covalent inhibition of recombinant Mycobacterium tuberculosis DprE1 extracted from Escherichia coli BL21(DE3) assessed as inhibition constant using FPR/GGPR as substrate incubated for 60 mins by resazurin dye based fluorescence plate reader analysis.
Data set [11] in a line: Stability of compound in PBS at pH 7.4 assessed as compound remaining in presence of GSH incubated for 90 mins by UPLC-HRMS analysis. The class given is physicochemical. Particulars: PBS with GSH, read-out: Stability.

For orientation: MIC means the lowest concentration that inhibits growth of the organism. One may read the half-life as the time in which the quantity being followed falls by half. The term CC50 denotes the concentration that lowers cell viability or growth by half. Low readings indicate harm at low concentration, high ones better tolerance by the cells. For the compound `C#CP(=O)(Nc1cc(C(F)(F)F)cc2c(=O)nc(N3CCC4(CC3)OC[C@H](C)O4)sc12)OCC` (stereo partly specified), the MIC with Mycolicibacterium vaccae came out at 12 µM (≈ 6.21 µg/mL); in [1], 10.3 µM (≈ 5.33 µg/mL); in [4] it was 96.6 µM (≈ 50 µg/mL); in [5], 10.3 µM (≈ 5.33 µg/mL). Further, in data set [2], the half-life was found to be 10.5 min. The Drug metabolism result in [3] is listed as “metabolite_notdetected”. The compound also had a CC50 at 72 h in [6] of 10.8 µM.
As to `C=C=CC(=O)Nc1cc(C(F)(F)F)cc2c(=O)nc(N3CCC4(CC3)OC[C@H](C)O4)sc12`, the MIC (with Mycolicibacterium vaccae; in data set [4]) was 107 µM (≈ 50 µg/mL) each time.
As usually defined, the IC50 is the concentration needed to halve the response being measured. With `C=CS(=O)(=O)Nc1cc(C(F)(F)F)cc2c(=O)nc(N3CCC4(CC3)OC[C@H](C)O4)sc12`, the MIC stood at 1.6 µM (≈ 0.786 µg/mL) with Mycolicibacterium vaccae, 44.9 µM (≈ 22.1 µg/mL) in [1], 25.4 µM (≈ 12.5 µg/mL) in [4] and 45.2 µM (≈ 22.2 µg/mL) in data set [5]. In [7], the IC50 was determined as 2.62 µM.
On to `COC(=O)C(=O)Nc1cc(C(F)(F)F)cc2c(=O)nc(N3CCC4(CC3)OC[C@H](C)O4)sc12`, for which the minimum inhibitory concentration (MIC) was 51.3 µM (≈ 25 µg/mL) with Mycolicibacterium vaccae and 103 µM (≈ 50 µg/mL) in data set [4]. In addition, in data set [8], the Stability entry is listed as “Unstable”. In addition, in [3], the Drug metabolism result is reported as “metabolite_notdetected”. Moreover, the CC50 at 72 h in data set [6] is above 50 µM.
Turning to `CCOC(=O)C(=O)Nc1cc(C(F)(F)F)cc2c(=O)nc(N3CCC4(CC3)OC[C@H](C)O4)sc12`, the MIC in the data set with Mycolicibacterium vaccae came to 49.8 µM (≈ 25 µg/mL); in data set [4], 99.7 µM (≈ 50 µg/mL). In addition, the Stability entry in [8] was “Unstable”. In addition, the Drug metabolism entry in [3] is “metabolite_notdetected”. The CC50 at 72 h in data set [6] is above 50 µM.
Regarding `C=CC(=O)Nc1cc(C(F)(F)F)cc2c(=O)nc(N3CCC4(CC3)OC[C@H](C)O4)sc12`, the IC50 in data set [9] was determined as 6.83 µM. The MIC in [1] is 3.6 µM (≈ 1.64 µg/mL); in data set [4], 110 µM (≈ 50 µg/mL); in data set [5], 3.9 µM (≈ 1.78 µg/mL). Also, in data set [10], the Ki came to 38.8 µM.
Take `C=C(F)C(=O)Nc1cc(C(F)(F)F)cc2c(=O)nc(N3CCC4(CC3)OC[C@H](C)O4)sc12`: the MIC with Mycolicibacterium vaccae came out at 13.2 µM (≈ 6.25 µg/mL); in data set [1], 15.5 µM (≈ 7.34 µg/mL); in [4] it was 106 µM (≈ 50 µg/mL); in [5], 13 µM (≈ 6.15 µg/mL). Further, in data set [7], the IC50 stood at 1.13 µM.
In the case of `C[C@H]1COC2(CCN(c3nc(=O)c4cc(C(F)(F)F)cc(NC(=O)C(C)(C)Br)c4s3)CC2)O1`, the results for the MIC (in the data set on Mycolicibacterium vaccae; in data set [4]) were 45.4 µM (≈ 25 µg/mL) and 90.8 µM (≈ 50 µg/mL), respectively. For the same compound, the IC50 in data set [9] was determined as 81.4 µM. Besides, in [3], the Drug metabolism entry was “metabolite_notdetected”. In addition, the Ki in [10] came out at 715 µM. This compound returned a CC50 at 72 h in data set [6] above 50 µM. Moreover, the remaining at 1.5 h in data set [11] turned out to be 100%.
Take `C[C@H]1COC2(CCN(c3nc(=O)c4cc(C(F)(F)F)cc(N5CCC5=O)c4s3)CC2)O1`: the MIC was 54.9 µM (≈ 25 µg/mL) in the data set on Mycolicibacterium vaccae and 110 µM (≈ 50 µg/mL) in data set [4]. The CC50 at 72 h in data set [6] was above 50 µM. In addition, in data set [11], the remaining at 1.5 h was 100%.
Regarding `C=C(C)C(=O)Nc1cc(C(F)(F)F)cc2c(=O)nc(N3CCC4(CC3)OC[C@H](C)O4)sc12`, the MIC in the data set with Mycolicibacterium vaccae amounted to 26.6 µM (≈ 12.5 µg/mL); in data set [4], 106 µM (≈ 50 µg/mL). For the same compound, in [9], the IC50 stood at 33.9 µM. Also, the Ki in [10] worked out at 214 µM.
For `CC(Cl)C(=O)Nc1cc(C(F)(F)F)cc2c(=O)nc(N3CCC4(CC3)OC[C@H](C)O4)sc12` (stereo partly specified), the MIC (in the data set with Mycolicibacterium vaccae; in data set [4]) was 102 µM (≈ 50 µg/mL) each time. Moreover, in data set [3], the Drug metabolism result was “metabolite_notdetected”. Moreover, the CC50 at 72 h in data set [6] was above 50 µM. In addition, the remaining at 1.5 h in [11] is 100%.
As to `C=CP(=O)(Nc1cc(C(F)(F)F)cc2c(=O)nc(N3CCC4(CC3)OC[C@H](C)O4)sc12)OCC` (stereo partly specified), the MIC is 6 µM (≈ 3.12 µg/mL) in the data set with Mycolicibacterium vaccae, 5 µM (≈ 2.6 µg/mL) in data set [1], 24.1 µM (≈ 12.5 µg/mL) in data set [4] and 4.5 µM (≈ 2.34 µg/mL) in [5]. Moreover, in [7], the IC50 was 19.5 µM. Moreover, in data set [3], the Drug metabolism result is listed as “metabolite_notdetected”. This compound returned a CC50 at 72 h in data set [6] above 50 µM. The remaining at 1.5 h in [11] is 100%.
For the compound `C[C@H]1COC2(CCN(c3nc(=O)c4cc(C(F)(F)F)cc([N+](=O)[O-])c4s3)CC2)O1` [BTZ-043], the MIC came to 0.004 µM (≈ 0.00173 µg/mL) in the data set with Mycolicibacterium vaccae, 0.002 µM (≈ 0.000863 µg/mL) in [1], 0.058 µM (≈ 0.025 µg/mL) in [4] and 0.002 µM (≈ 0.000863 µg/mL) in data set [5].
